Experimental data from ChEMBL document CHEMBL3860022, “Do cinnamylideneacetophenones have antioxidant properties and a protective effect toward the oxidation of phosphatidylcholines?” (Eur J Med Chem, 2016).
Blank lines part the entries; values can stand above or below the compound they belong to. Calls of active or inactive are those of the source. The rule behind the calls is not given here.

Columns and labels:
Type in all cases: functional
[1] = Antioxidant activity assessed as inhibition of fenton reaction-mediated PLPC peroxidation by measuring ratio of oxidized PLPC/unmodified PLPC at 1 mg/ml incubated in dark for 1 hr to 7 days by mass spectroscopic analysis
[2] = Antioxidant activity assessed as inhibition of fenton reaction-mediated PLPC peroxidation by measuring ratio of dMPC/unmodified PLPC at 1 mg/ml incubated in dark for 1 hr to 7 days by mass spectroscopic analysis
[3] = Antioxidant activity assessed as AAPH free radical scavenging activity by measuring trolox equivalent at 75 to 350 umol/L measured every min during 240 mins by fluorescein-based oxygen radical absorption capacity assay
[4] = Antioxidant activity assessed as inhibition of fenton reaction-mediated PLPC peroxidation by measuring ratio of oxidized PLPC/unmodified PLPC at 2 mg/ml incubated in dark for 1 hr to 7 days by mass spectroscopic analysis
[5] = Antioxidant activity assessed as DPPH free radical scavenging activity by measuring trolox equivalent at 1.5 to 35 umol/L after 60 mins
[6] = Antioxidant activity assessed as inhibition of fenton reaction-mediated PLPC peroxidation by measuring ratio of [dMPC + H]+/[PLPC + H]+ at 2 mg/ml incubated in dark for 1 hr to 7 days by mass spectroscopic analysis
[7] = Antioxidant activity assessed as inhibition of fenton reaction-mediated PLPC peroxidation at 2 mg/ml incubated in dark for 1 hr by mass spectroscopic analysis
[8] = Antioxidant activity assessed as inhibition of fenton reaction-mediated PLPC peroxidation at 2 mg/ml incubated in dark for 3 days by mass spectroscopic analysis
[9] = Antioxidant activity assessed as AAPH free radical scavenging activity by measuring trolox equivalent at 0.5 to 10 umol/L measured every min during 240 mins by fluorescein-based oxygen radical absorption capacity assay
[10] = Antioxidant activity assessed as DPPH free radical scavenging activity after 60 mins
[11] = Antioxidant activity assessed as AAPH free radical scavenging activity measured every min during 240 mins by fluorescein-based oxygen radical absorption capacity assay
[12] = Antioxidant activity assessed as AAPH free radical scavenging activity by measuring trolox equivalent at 1.5 to 35 umol/L measured every min during 240 mins by fluorescein-based oxygen radical absorption capacity assay
[13] = Antioxidant activity assessed as DPPH free radical scavenging activity by measuring trolox equivalent at 5 to 35 umol/L after 60 mins
[14] = Antioxidant activity assessed as DPPH free radical scavenging activity by measuring trolox equivalent at 10 to 100 umol/L after 60 mins
[15] = Antioxidant activity assessed as inhibition of fenton reaction-mediated PLPC peroxidation by measuring ratio of [dMPC + H]+/[PLPC + H]+ at 1 mg/ml incubated in dark for 1 hr to 7 days by mass spectroscopic analysis
[16] = Antioxidant activity assessed as inhibition of fenton reaction-mediated PLPC peroxidation at 1 mg/ml incubated in dark for 3 days by mass spectroscopic analysis
[17] = Antioxidant activity assessed as AAPH free radical scavenging activity by measuring trolox equivalent at 12.5 to 100 umol/L measured every min during 240 mins by fluorescein-based oxygen radical absorption capacity assay

SMILES: O=C(/C=C/C=C/c1ccccc1)c1ccccc1
inhibition [1]: Active
inhibition [2]: Active
Activity [3]: 0.06 equiv

SMILES: O=C(/C=C/c1ccccc1)c1ccccc1
Activity [3]: 0.049 equiv

IC50 [10]: 32.5 µM
IC50 [11]: 1.8 µM
SMILES: COc1cc(/C=C/C(=O)CC(=O)/C=C/c2ccc(O)c(OC)c2)ccc1O [CURCUMIN]
inhibition [4]: Active
Activity [5]: 1.42 equiv
inhibition [6]: Active
inhibition [7]: Active
inhibition [8]: Active
Activity [9]: 3.9 equiv

IC50 [10]: 74 µM
IC50 [11]: 3.3 µM
SMILES: N#CC(C#N)C(/C=C/c1ccccc1)CC(=O)c1ccccc1 (stereo not given)
Activity [12]: 2.7 equiv
Activity [13]: 0.9 equiv

SMILES: O=C(/C=C/C=C/c1ccccc1)c1ccc(O)cc1
Activity [12]: 4.1 equiv

IC50 [10]: 52.2 µM
IC50 [11]: 4.2 µM
SMILES: Cc1c(C)c2c(c(C)c1O)CCC(C)(C(=O)O)O2 (stereo not given) [TROLOX]

IC50 [10]: 32.5 µM
IC50 [11]: 1.2 µM
SMILES: O=C(/C=C/C=C/c1ccc(O)cc1)c1ccccc1
inhibition [1]: Active
inhibition [2]: Active
Activity [12]: 4.8 equiv
Activity [14]: 0.29 equiv

SMILES: COc1ccc(/C=C/C=C/C(=O)c2ccccc2)cc1
inhibition [15]: Active
inhibition [1]: Active
inhibition [16]: Active
Activity [17]: 0.17 equiv

SMILES: COc1ccc(C(=O)/C=C/C=C/c2ccccc2)cc1
Activity [17]: 0.12 equiv
